Test results published in patent US8772284B2, “Method of treating cancer using combination of a bifunctional alkylating agent and DNA repair inhibitors” (Academia Sinica, priority 2009, dated 2014).

Columns and labels:
DNA ICLs in H460 cells = experiment: Modified comet assay, formation and repair of DNA ICLs; format: cell-based, human; details: treated 1 h
Experimental: (§1) H460 cells were treated with various concentrations of BO-1012, melphalan, or thiotepa for 1 h and then subjected to the modified comet assay as described in Materials and Methods. Percentage of DNA ICLs was calculated by the percentage of decrease in tail moment. […] H460 cells were treated with 40 μM BO-1012 for 1 h, washed, and then treated with 8 μM ATO for 16, 24, and 48 h. *, p<0.05 as compared to BO-1012 alone at the indicated time. […] H460 cells were treated with BO-1012 and ATO, alone or in combination, as described above. After treatment, the detection of γH2AX (green) immunofluorescence staining was performed as described in Materials and Methods. Nuclei were stained by DAPI (blue).
Modified Single-Cell Gel Electrophoresis (Comet) and DNA ICL Repair Assays. The formation and the repair of DNA ICLs in H460 cells was analyzed using a modified comet assay as described previously.

NTUB1 xenografts = experiment: NTUB1 xenograft mouse model; format: in vivo, nude mice; details: 2.5 mg/kg BO-1012 or 5 mg/kg ATO, i.v., QD×5
[1] = tested on: γH2AX nuclear foci in H460 cells; experiment: γH2AX nuclear foci, immunofluorescence staining; format: cell-based, human; details: time not stated
Experimental: as §1
Immunofluorescence Staining. H460 cells were cultured onto slides and then treated with BO-1012 and ATO, separately and in combination as described above, for 24, 48, or 72 h. To visualize γH2AX, cells were washed with cold PBS and fixed with 100% ice-cold methanol for 30 min. Slides were washed with PBS and incubated with anti-γH2AX antibody for 2 h at room temperature followed by Alexa Fluor 488-conjugated secondary antibodies (Molecular Probes, Eugene, Oreg.) and DAPI. After mounting with 50% glycerol, slides were subjected to confocal image analysis (Radiance 2100 System, Bio-Rad). Cells with at least four γH2AX foci in nuclei were counted as positive.

H460 xenografts = experiment: H460 xenograft mouse model; format: in vivo, nude mice; details: 2.5 mg/kg BO-1012 and/or 5 mg/kg ATO, i.v., QD×5
NTUB1/P xenografts = experiment: NTUB1/P xenograft mouse model; format: in vivo, nude mice; details: 5 mg/kg ATO, i.v., QD×5
[2] = tested on: NTUB1/P cells (cisplatin-resistant); experiment: Cell viability, WST-1 assay; format: cell-based, human; details: for IC50: NTUB1/P cells, agent alone
Description: (§2) Cell Lines and Cell Culture. H460 (human lung large cell carcinoma cells), H1299 (human lung large cell carcinoma p53-deficient cells), PC3 (human prostate carcinoma cells), U87 (human glioma cells), and MCF7 (human breast carcinoma cells) were purchased from the American Type Culture Collection (Rockville, Md.). OEC-M1 (human gingival squamous cell carcinoma cells) was obtained from Dr. C.-L. Meng (National Defense Medical College, Taiwan). NTUB1 (human bladder transitional carcinoma cells) and the cisplatin-resistant sub-line NTUB1/P were provided by Dr. Y.-S. Pu (National Taiwan University Hospital, Taiwan). CL-1-5 (human lung adenocarcinoma cells) was obtained from Dr. P. C. Yang (National Taiwan University). All cell lines (except U87, which was grown in MEM medium) were cultured in RPMI1640 medium supplemented with 10% FBS and antibiotics, and incubated at 37° C. in a humidified atmosphere with 5% CO2.
(§3) Measurement of Cell Viability. Cell viability was assessed using the cell proliferation reagent WST-1 (Roche Molecular Biochemicals, Penzberg, Germany), which is a tetrazolium salt that is cleaved by mitochondrial dehydrogenase in viable cells. In brief, 2,000-7,000 cells were seeded in each well of 96-well plates and incubated at 37° C. overnight prior to drug treatment. After a 72-h incubation with BO-1012 alone (0.1˜80 μM), ATO alone (1˜8 μM), or BO-1012 plus ATO, WST-1 solution was added to each well at a 1:10 dilution, and cells were incubated at 37° C. in 5% CO2 for 4 h. Cell viability was assessed by absorbance at 460 nm using an automatic enzyme-linked immunosorbent assay (ELISA) plate reader. The IC50 value for each drug, alone or in combination, was calculated using CompuSyn software (version 1.0.1; CompuSyn, Inc.). The interactions between ATO and BO-1012 were evaluated by the Chou-Talalay combination indices (CI), where CI<1 indicates synergy; CI=1, additivity; and CI>1, antagonism.

NTUB1 cells = experiment: Cell viability, WST-1 assay; format: cell-based, human; details: agent alone
Description: as §2, §3

CL-1-5 xenografts = details: CL-1-5 xenograft; LY294002 40 mg/Kg QD×9, triciribine 1 mg/Kg Q2D×5, BO-1509 10 mg/Kg
[3] = tested on: NTUB1/P cells (cisplatin-resistant); details: NTUB1/P vs NTUB1, stated with ref [37]; cited from earlier work

Compound | formation of ICLs (DNA ICLs in H460 cells) | IC50 [2] [µM] | IC50 (NTUB1 cells) [µM] | also measured
S=P(N1CC1)(N1CC1)N1CC1 [thiotepa] | increased in a dose-dependent fashion |  |  | 
arsenic trioxide [ATO] | did not cause ICLs | 3.8 | 0.4 | growth of NTUB1 tumors (NTUB1 xenografts): did not effectively suppress; percentage of cells with γH2AX foci [1]: 26.8%; time to achieve a tumor volume of 500 mm^3 (H460 xenografts): 7.1 days; growth of NTUB1/P tumors (NTUB1/P xenografts): did not effectively suppress; fold more resistant, NTUB1/P than NTUB1 cells ([2]; ratio of IC50 values): 9.5 fold
O=c1cc(N2CCOCC2)oc2c(-c3ccccc3)cccc12 [LY294002, 2-(4-morpholinyl)-8-phenyl-chromone] |  |  |  | suppression of tumor growth (CL-1-5 xenografts): unable to suppress the tumor growth at all
N[C@@H](Cc1ccc(N(CCCl)CCCl)cc1)C(=O)O [melphalan] | increased in a dose-dependent fashion |  |  | 
N.N.[Cl][Pt][Cl] [cisplatin] |  | 212 | 3.6 | fold more resistant to cisplatin than the parental cells [3]: 60 fold
